ChEMBL document CHEMBL1124186, “Synthesis and evaluation of tylosin-related macrolides modified at the aldehyde function: a new series of orally effective antibiotics” (1988)
In brackets after ≈: the same amount, converted by molar mass.

Assays:
Haemophilus influenzae = assay: In vitro antimicrobial activity against Haemophilus influenzae.; assay type: functional
Staphylococcus aureus = assay: In vitro antimicrobial activity against Staphylococcus aureus X1; assay type: functional
Streptococcus pyogenes [1] = assay: In vivo effective dose against experimental infections in rodent caused by Streptococcus pyogenes C203 when administered sc; assay type: functional
Streptococcus pneumoniae = assay: In vitro antimicrobial activity against Streptococcus pneumoniae; assay type: functional
[2] = system: Staphylococcus epidermidis; assay: In vitro antimicrobial activity against Staphylococcus epidermidis EPI1; assay type: functional
Enterococcus faecium = assay: In vitro antimicrobial activity against Streptococcus faecium X66; assay type: functional, streptococcus fae-cium
Streptococcus pyogenes [3] = assay: In vitro antimicrobial activity against Streptococcus pyogenes C203; assay type: functional
Streptococcus pyogenes [4] = assay: In vivo effective dose against experimental infections in rodent caused by Streptococcus pyogenes C203 when administered orally; assay type: functional; conditions: po

MIC (Haemophilus influenzae) [µg/mL] | MIC (Staphylococcus aureus) [µg/mL] | MIC (Streptococcus pneumoniae) [µg/mL] | MIC [2] [µg/mL] | MIC (Enterococcus faecium) [µg/mL] | MIC (Streptococcus pyogenes [3]) [µg/mL] | SMILES | ED50 (Streptococcus pyogenes [1]) [mg/kg] | ED50 (Streptococcus pyogenes [4]) [mg/kg]
8 (≈ 10.6 µM) | 2 (≈ 2.64 µM) | 0.25 (≈ 0.33 µM) | 2 (≈ 2.64 µM) | 4 (≈ 5.28 µM) | 0.25 (≈ 0.33 µM) | CC[C@H]1OC(=O)C[C@@H](O)[C@H](C)[C@@H](O[C@@H]2O[C@H](C)[C@@H](O)[C@H](N(C)C)[C@H]2O)[C@@H](CC=O)C[C@@H](C)C(=O)/C=C/C(C)=C/[C@@H]1CO[C@@H]1O[C@H](C)[C@@H](O)[C@@H](O)[C@H]1OC | 1.8 | 81
32 (≈ 34.3 µM) | 0.5 (≈ 0.536 µM) | 1 (≈ 1.07 µM) | 0.5 (≈ 0.536 µM) | 16 (≈ 17.2 µM) | 1 (≈ 1.07 µM) | CCOC(=O)NN(CC[C@H]1C[C@@H](C)C(=O)/C=C/C(C)=C/[C@H](CO[C@@H]2O[C@H](C)[C@@H](O)[C@@H](OC)[C@H]2OC)[C@@H](CC)OC(=O)C[C@@H](O)[C@H](C)[C@H]1O[C@@H]1O[C@H](C)[C@@H](O)[C@H](N(C)C)[C@H]1O)C(=O)OCC | 2.1 | > 5
128 (≈ 126 µM) | 4 (≈ 3.95 µM) | 8 (≈ 7.89 µM) | 4 (≈ 3.95 µM) | > 128 | 2 (≈ 1.97 µM) | CC[C@H]1OC(=O)C[C@@H](O)[C@H](C)[C@@H](O[C@@H]2O[C@H](C)[C@@H](O[C@H]3C[C@@](C)(O)[C@@H](O)[C@H](C)O3)[C@H](N(C)C)[C@H]2O)[C@@H](CCN2CCCCCCC2)C[C@@H](C)C(=O)/C=C/C(C)=C/[C@@H]1CO[C@@H]1O[C@H](C)[C@@H](O)[C@@H](OC)[C@H]1OC | > 10 | 44
8 (≈ 9.12 µM) | 0.5 (≈ 0.57 µM) | 1 (≈ 1.14 µM) | 0.5 (≈ 0.57 µM) | 8 (≈ 9.12 µM) | 0.25 (≈ 0.285 µM) | CC[C@H]1OC(=O)C[C@@H](O)[C@H](C)[C@@H](O[C@@H]2O[C@H](C)[C@@H](O)[C@H](N(C)C)[C@H]2O)[C@@H](CCNCCc2ccccc2)C[C@@H](C)C(=O)/C=C/C(C)=C/[C@@H]1CO[C@@H]1O[C@H](C)[C@@H](O)[C@@H](OC)[C@H]1OC | > 1.6 | 55
32 (≈ 38.3 µM) | 0.25 (≈ 0.299 µM) | 1 (≈ 1.2 µM) | 0.25 (≈ 0.299 µM) | 4 (≈ 4.78 µM) | 0.25 (≈ 0.299 µM) | CC[C@H]1OC(=O)C[C@@H](O)[C@H](C)[C@@H](O[C@@H]2O[C@H](C)[C@@H](O)[C@H](N(C)C)[C@H]2O)[C@@H](CCOc2ccccc2)C[C@@H](C)C(=O)/C=C/C(C)=C/[C@@H]1CO[C@@H]1O[C@H](C)[C@@H](O)[C@@H](O)[C@H]1OC | 3.2 | 50
16 (≈ 21.8 µM) | 1 (≈ 1.36 µM) | 0.5 (≈ 0.681 µM) | 0.5 (≈ 0.681 µM) | 2 (≈ 2.73 µM) | 1 (≈ 1.36 µM) | CC[C@H]1OC(=O)C[C@@H](O)[C@H](C)[C@@H](O[C@@H]2O[C@H](C)[C@@H](O)[C@H](N(C)C)[C@H]2O)[C@@H](CCOc2ccc(OC(C)=O)cc2)C[C@@H](C)C(=O)/C=C/C(C)=C/[C@@H]1CO | > 30 | > 100
8 (≈ 8.91 µM) | 0.25 (≈ 0.278 µM) | – | 0.25 (≈ 0.278 µM) | 4 (≈ 4.45 µM) | 0.25 (≈ 0.278 µM) | CC[C@H]1OC(=O)C[C@@H](O)[C@H](C)[C@@H](O[C@@H]2O[C@H](C)[C@@H](O)[C@H](N(C)C)[C@H]2O)[C@@H](CCOS(=O)c2ccccc2)C[C@@H](C)C(=O)/C=C/C(C)=C/[C@@H]1CO[C@@H]1O[C@H](C)[C@@H](O)[C@@H](OC)[C@H]1OC (some centres undefined) | 5 | 45
16 (≈ 17.5 µM) | 0.25 (≈ 0.274 µM) | 1 (≈ 1.1 µM) | 0.25 (≈ 0.274 µM) | 8 (≈ 8.77 µM) | 1 (≈ 1.1 µM) | CC[C@H]1OC(=O)C[C@@H](O)[C@H](C)[C@@H](O[C@@H]2O[C@H](C)[C@@H](O)[C@H](N(C)C)[C@H]2O)[C@@H](CCS(=O)(=O)c2ccc(C)cc2)C[C@@H](C)C(=O)/C=C/C(C)=C/[C@@H]1CO[C@@H]1O[C@H](C)[C@@H](O)[C@@H](OC)[C@H]1OC | 4.2 | > 50
16 (≈ 18.8 µM) | 0.5 (≈ 0.588 µM) | 2 (≈ 2.35 µM) | 0.5 (≈ 0.588 µM) | 16 (≈ 18.8 µM) | 2 (≈ 2.35 µM) | CC[C@H]1OC(=O)C[C@@H](O)[C@H](C)[C@@H](O[C@@H]2O[C@H](C)[C@@H](O)[C@H](N(C)C)[C@H]2O)[C@@H](CCOc2cccnc2)C[C@@H](C)C(=O)/C=C/C(C)=C/[C@@H]1CO[C@@H]1O[C@H](C)[C@@H](O)[C@@H](OC)[C@H]1OC | 3.9 | 50
16 (≈ 19.1 µM) | 0.25 (≈ 0.299 µM) | 2 (≈ 2.39 µM) | 0.25 (≈ 0.299 µM) | 8 (≈ 9.56 µM) | 0.12 (≈ 0.143 µM) | CC[C@H]1OC(=O)C[C@@H](O)[C@H](C)[C@@H](O[C@@H]2O[C@H](C)[C@@H](O)[C@H](N(C)C)[C@H]2O)[C@@H](CCBr)C[C@@H](C)C(=O)/C=C/C(C)=C/[C@@H]1CO[C@@H]1O[C@H](C)[C@@H](O)[C@@H](OC)[C@H]1OC | 4.5 | 19
